Reference: patent EP3409266A1, “ACTIVE INGREDIENT COMBINATIONS OF GLYCERYL GLUCOSIDES AND ONE OR MORE MILD SURFACTANTS” (Beiersdorf AG, priority 2010, dated 2012)

What was measured:
Kalbserythrozyten [1] = test: RBC test: haemolysis (release of haemoglobin, H50); format: cell-based, Kalb; settings: 10 min
Excerpt: (§1) Der Standard RBC-Test dient zur Abschätzung von in-vivo Augenschleimhautreizpotentialen von Tensiden und tensidhaltigen Produkten. Das Verfahren beruht auf der Tatsache, dass Tenside stark mit Zellmembranen und Proteinen interagieren. Beide Effekte werden photometrisch durch Analyse des natürlichen Blutfarbstoffs Oxyhämoglobin ([…]) bestimmt. Im Gegensatz zu anderen zellbasierten Systemen ist der RBC-Test in der Lage zwischen Schädigungen der Zellmembran (Hämolyse) und Proteindenaturierung (Denaturierungsindex) zu differenzieren.
Ein definiertes Aliquot isolierter Kalbserythrozyten wird mit einer Reihe steigender Konzentrationen des zu untersuchenden Musters (Stammlösung für Rohstoffe 0,1 Gew.-% Aktivgehalt der waschaktiven Substanz in PBS; Stammlösung für Fertigprodukte 1:100 w/v in PBS) für 10 Minuten unter Schütteln bei RT inkubiert. PBS ist ein üblicher Standard-PhosphatPuffer (pH 7,4) mit folgender Zusammensetzung:
Die Inkubationsperiode wird durch schnelle Hochgeschwindigkeitszentrifugation beendet. Nach Zentrifugation werden die gewonnenen Überstände photometrisch auf ihren Gehalt an freigesetztem Hämoglobin (HbO2) bei 530 nm analysiert. Daraus wird der relative Hämolysegrad berechnet und die Konzentrations-Response-Kurve mit dem H50-Wert [µl/ml] als Kenngröße bestimmt. Dieser gibt die Konzentration des Prüfmusters an, bei der 50% des Hämoglobins freigesetzt werden. Je höher der Wert, desto verträglicher ist das untersuchte Muster.

Kalbserythrozyten [2] = format: cell-based, Kalb
Excerpt: Die Milde eines Tensides oder Tensidsystems lässt sich durch die Bestimmung der Quotienten aus Hämolysewert und Denaturierungsindex charakterisieren. Der Quotient L/D repräsentiert das Verhältnis von Hämolysewert (L) zu Denaturierungsindex (D) und wird durch den Standard RBC-Test bestimmt.
as §1
Der Quotient (L/D-Wert) stellt das Verhältnis der Kenngrößen von Hämolyse (H50) und Denaturierung (DI) dar und wird zur Charakterisierung und Klassifizierung der untersuchten Prüfmuster verwendet.
Tenside oder Tensidmischungen werden erfindungsgemäß als mild angesehen, wenn der L/D-Wert mindestens 1 beträgt. Zum Vergleich dazu hat das häufig in Reinigungsprodukten eingesetzte Natriumlaurylethersulfat einen L/D-Wert von ca. 0,3 und wird als reizend klassifiziert. Sofern in einer Tensidmischung Natriumlaurylethersulfat eingesetzt wird, hat die resultierende Tensidmischung erfindungsgemäß einen L/D-Wert von mindestens 1.

HbO2 = target: T1, HbO2 (Bos taurus, UniProt P01966+P02070); test: RBC test: HbO2 denaturation (denaturation index DI); format: cell-based; settings: raw material 0,1 Gew.-% active content in PBS, 10 min, RT; 100% standard Natriumlaurylsulfat; lower = better tolerated
T1 construct: wird im Vergleich zum nativen HbO2 gemessen; endogenous in cells; host or cells: isolated calf erythrocytes (Kalbserythrozyten)
Excerpt: as §1
Ein definiertes Aliquot isolierter Kalbserythrozyten wird mit einer fixen Konzentration des Prüfmusters (Konzentration für Rohstoffe 0,1 Gew.-% Aktivgehalt der waschaktiven Substanz in PBS; Konzentration für Fertigprodukte 1% w/v in PBS) für 10 Minuten unter Schütteln bei RT inkubiert und dann zentrifugiert. Die Änderung der spektralen Absorption bei 575 nm und 540 nm wird im Vergleich zum nativen HbO2 gemessen. Aus dem Verhältnis der Absorptionswerte zueinander wird der Denaturierungsindex DI [%] berechnet. Als 100%-Standard dient Natriumlaurylsulfat (0,1% Aktivgehalt).
Je geringer der Wert, desto verträglicher ist das untersuchte Muster.

T1 sequence (P01966 2-142 limits assumed): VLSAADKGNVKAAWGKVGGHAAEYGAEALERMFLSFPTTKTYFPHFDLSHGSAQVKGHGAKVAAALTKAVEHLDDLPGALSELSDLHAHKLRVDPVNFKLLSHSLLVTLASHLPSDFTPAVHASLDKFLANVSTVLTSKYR
T1 sequence (P02070 whole entry): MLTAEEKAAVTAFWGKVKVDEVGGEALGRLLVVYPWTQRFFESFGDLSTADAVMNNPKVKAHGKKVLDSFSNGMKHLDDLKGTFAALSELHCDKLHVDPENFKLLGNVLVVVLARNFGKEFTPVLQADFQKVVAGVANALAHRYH

Molecule	H50 (Kalbserythrozyten [1]; bovine, pH 7.4)	L/D (Kalbserythrozyten [2])	DI (HbO2)	H50 (Kalbserythrozyten [1]; raw material, stock 0,1 Gew.-% active content in PBS, RT, higher = better tolerated) [µl/ml]	Klassifizierung nach L/D-Wert (Kalbserythrozyten [2])
Decylglucosid	127,7 µl/ml	33,4	3,9%	–	–
Dinatriumcocoylglutamat	136,6 µl/ml	1,75	77,9%	–	–
CCCCCCCCCCCC(=O)N(C)CC(=O)O [Natriumlauroylsarcosinat]	–	7,84	58,4%	458	–
PEG-7 Glycerylcocoat	115,2 µl/ml	23,5	4,9%	–	–
Cocamidopropylbetain	56,1 µl/ml	21,65	2,6%	–	–
Dinatriumcocoamphodiacetat	36,4 µl/ml	24	1,5%	–	–
Natriumcocoamphoacetat	26 µl/ml	26	1%	–	–
Dinatriumlaurylethersulfosuccinat	167,7 µl/ml	4,15	40,4%	–	–
Natriumlaurylethersulfat [reference compound]	–	ca. 0,3	–	–	reizend
Laurylglucosid	84,1 µl/ml	20,4	3,2%	–	–
Dinatrium PEG-5 Laurylcitratsulfosuccinat	645 µl/ml	117	5,5%	–	–
CCCCCCCCCCCC(=O)NC(CCC(=O)O)C(=O)O (centres unmarked) [Natriumlauroylglutamat]	312,3 µl/ml	29,9	10,5%	–	–
